Laboratory results: patent publication EP0574781A2, “2-Amino-5-heterocyclic-substituted-1,4-benzodiazepines and their use in the treatment of aids” (priority 1992, dated 1993)

Biological target: T1, HIV-TAT (Human immunodeficiency virus type 1 group M subtype B, UniProt P04608)
T1 construct: expressed in transfected cells; host or cells: COS cells
Experiment: anti-HIV-TAT assay (SeAP reporter under HIV-LTR versus RSV-LTR in transfected COS cells)
Type: cell-based
Settings: specific inhibition 100 [(1-A/B) - (1-C/D)] of SeAP under HIV-LTR versus RSV-LTR, concentrations tested 1 to 50 /1.M, compound added 24 hours post transfection, assayed 48 hours after addition, average of at least three tests
Method: The compounds of formula I were tested for anti-HIV-TAT activity in an assay described in US Patent No. 5070010, comprising the following steps: • (a) putting both the expression of the Secreted Alkaline Phosphatase (SeAP) gene and the viral trasactivator TAT gene under the control of the HIV promoter LTR responsive to the action of the HIV transactivator TAT; • (b) transfecting cultured mammalian cells with plasmids which contain the gene constructs of (a) above and cause cellular production of the trasactivating factor TAT ad SeAP; • (c) adding the agent to be tested, here the compounds of formula I; and determining the amount of SeAP produced, by measuring SeAP enzymatic activity, whereby inhibition of SeAP production correlates with the anti-TAT inhibition activity.
In this assay, the inhibition of SeAP positively correlates with anti-TAT activity. The greater the ability of a agent to inhibit SeAP, the greater is its anti-TAT activity.
Specifically, with respect to the results reported below, the anti-HIV-TAT assay was run as follows: • At 24 hours post transfection 1, 10 and 50 /1.M of a test compound of formula I was added to the culture media of COS cells transfected with two plasmids, one containing the reporter gene which codes for SeAP under control of HIV-LTR, and the other containing the HIV-TAT gene also under control of HIV-LTR. […]
The anti-HIV-TAT activities of the test compounds were determined by measuring the amount of alkaline phosphatase in the supernatant media of cultures of cells in which SeAP gene expression was under the control of the HIV LTR promoter. The specific inhibitory activities of the test compounds were calculated according to the formula: 100 [(1-A/B) - (1-C/D)] where A and B are the alkaline phosphatase activites produced by HIV-LTR/SeAP in the presence and absence, respectively, of test compound, and C and D are the alkaline phosphatase activities produced by RSV-LTR/SeAP in the presence and absence, respectively, of test compound. […]

T1 sequence (P04608 whole entry): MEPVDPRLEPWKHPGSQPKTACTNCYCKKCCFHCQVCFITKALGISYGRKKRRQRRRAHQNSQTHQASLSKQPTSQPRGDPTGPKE

| SMILES | Anti-HIV-TAT activity |
| --- | --- |
| CNC1=Nc2ccc(Cl)cc2C(c2cn[nH]c2)=NC1 [Example 2, 7-chloro-N-methyl-5-(1 H-pyrazol-4-yl)-3H-1,4-benzodiazepin-2-amine] | High/Medium |
| CNC1=Nc2ccc(C)cc2C(c2cn[nH]c2)=NC1 [Example 3, N,7-Dimethyl-5-(1 H-pyrazol-4-yl)-3H-1,4-benzodiazepin-2-amine] | High/Medium |
| CNC1=Nc2ccc(Cl)cc2C(c2cnn[nH]2)=NC1 [Example 1, 7-chloro-N-methyl-5-(1H-1,2,3-triazol-5-yl)3H-1,4-benzodiazepin-2-amine] | High (High is >60% inhibition) |
